Results: a melting point compilation (Tetko et al.; mined from patent text by program, amines drawn as free bases though some values may be those of a salt)

| SMILES | melting point [°C] |
| --- | --- |
| CCc1cn(C2CC(O)C(CNC(=O)C(CC)c3ccccc3)O2)c(=O)[nH]c1=O (stereo not drawn) | 235 to 236 |
| CC1CCN(C(=O)[C@H]2CC=CC[C@@H]2NC(=O)C(F)(F)F)CC1 | 169 to 170 |
| C=CCC(NC(=O)CC)C(=O)O (stereo not drawn) | 96 to 98 |
| CN(CCOc1ccc(C=C2SC(=O)NC2=O)cc1)C(=O)c1ccccc1 | 178 to 180 |
| COc1ccc2[nH]c(C3CCC(c4ccccc4)(N(C)C)CC3)c(C)c2c1 (stereo not drawn) | 156 to 163 |
| Cc1cnc2ccc(-c3cccc(C(F)(F)F)c3)nn12 | 105 to 107 |
| CN(C)C=Nc1nc(CN2CCN(C(c3ccccc3)c3ccccc3)CC2)cs1 | 148 to 150 |
| N#Cc1ccccc1CCC(=O)c1c(O)c2cccnc2n(-c2ccccc2)c1=O | 226 to 227 |
| NC(=S)NN=C(CCC(=O)NCc1ccccc1)c1ccccc1 | 162 to 164 |
| CC(=O)OC1(C(=O)COC(=O)CC(C)C)CCC2C3CC(C)C4=CC(=O)C=CC4(C)C3C(O)CC21C (stereo not drawn) | 126 to 130 |
| OCCC1(CCO)c2ccccc2Sc2ccccc21 | 132 to 135 |
| O=C(CN1C2=NCCN2c2ccccc21)c1ccccc1 | 178 to 179 |
| CC(C)C(N)CN1CCC(Nc2nc3ccccc3[nH]2)CC1 (stereo not drawn) | 138 |
| Cc1nc(NCc2ccccn2)c2c(-c3ccccc3)csc2n1 | 110 to 112 |
| COc1ccc2[nH]cc(C3CCC4(CC3)OCCO4)c2c1 | 153 to 155 |
| CC(C)n1nc(-c2c(-c3ccccc3)nn3ccc(OCCN4C[C@@H](C)O[C@@H](C)C4)cc23)ccc1=O | 158 |
| Cc1nc(C(O)c2ccc(Cl)cc2)sc1C (stereo not drawn) | 107 |
| COC(CCN(C(=O)OC(C)(C)C)c1cc(OCc2ccccc2)c2ncccc2c1I)OC | 120 to 121 |
| O=[N+]([O-])c1ccccc1SN1CCN(C2CC2)CC1 | 100 to 102 |
| O=C(c1ccc2c(c1)OCCOCCOCCOCCOCCO2)c1ccccn1 | 78 to 80 |
| O=NSC1(C2OCCO2)CCCCC1 | 37 to 39 |
| O=[N+]([O-])c1ccc(N2C[C@@H]3C[C@H]2CO3)c(F)c1 | 106 to 108 |
| COC(=O)CCc1conc1-c1ccc(F)c(Cl)c1 | 39 to 40 |
| CN(C)C(=O)c1nc2n(n1)-c1ccc([N+](=O)[O-])cc1C(c1ccccc1)=NC2 | 209 to 211 |
| Cc1ccc(N2C(=O)c3nccnc3C2OC(=O)Oc2ccccc2)nc1 (stereo not drawn) | 176 |

| SMILES | melting point [°C] |
| --- | --- |
| Cc1cc([N+](=O)[O-])cc(C)c1NS(=O)(=O)CCSCCN | 159 |
| O=C(O)C1CCOc2ccc(F)cc21 (stereo not drawn) | 111 to 115 |
| O=C1NC(=O)C(Cc2ccc(SCCc3ccccc3)cc2)S1 (stereo not drawn) | 58 to 65 |
| O=C(Nc1cnc2sc(CO)nc2c1)c1cc2cc(C(F)(F)F)ccc2n1Cc1nccs1 | 282 to 283 |
| O=C1[C@@H](CCCO)O[C@H](c2ccccc2)c2ccccc2N1Cc1ccccc1 (relative stereo) | 59 to 62 |
| O=C(OCC1OC(n2cc(F)c(=O)[nH]c2=O)C(O)C1O)C1CCCN1C(=O)OCc1ccccc1 (stereo not drawn) | 137 to 144 |
| CN1C(=O)[C@@H](N)[C@@H]1c1ccccc1 (relative stereo) | 51.5 |
| CNC(=O)Oc1ccc2c(c1)c1c(n2C)C2(CC1)CCN(Cc1ccccc1)CC2 | 189 to 190 |
| O=C(NCc1ccc(Cl)cc1)c1cn(CCN2CCOCC2)c2ccc(C=CCO)cc2c1=O | 146 to 148 |
| Cc1ccccc1Cn1cccc1C(=O)CC(=O)C(=O)O | 176 to 178 |
| O=C(O)c1cnn(-c2nc(-c3cc(C(F)(F)F)cc(C(F)(F)F)c3)cs2)c1C(F)(F)F | 204 to 205 |
| O=C(O)c1cnn2c1NC(c1ccccc1)CC2C(F)(F)F (stereo not drawn) | 185 |
| COc1ccc(N)c(C(=O)O)c1OC | 71 to 72 |
| CCCC(=NOCC)C1=C(O)CC2(CSCCSC2)OC1=O | 108 to 110 |
| Cc1ccccc1-c1cc(=O)c2ccccc2o1 | 45.5 to 47.5 |
| CC(O)C1(c2cccc(Cl)c2)CCN(C)CC1 (stereo not drawn) | 125 to 126 |
| CC1(C)CC(CNS(=O)(=O)c2ccc(Cl)cc2)(Cc2ccc(CC(=O)O)cc2)C1 | 140 to 142 |
| COc1ccc(C(Sc2cc(Oc3cccc(C)c3)ccc2N)C(O)C(=O)O)cc1 (stereo not drawn) | 163 to 165 |
| CC=CCn1c(N(C(C)=O)c2cc(C)cc(C)c2)c(C(C)C)c(=O)[nH]c1=O | 103 to 105 |
| CS(=O)(=O)c1ccc(S(C)(=O)=O)nc1 | 205 to 207 |
| OCc1ccc(OCc2cn3c(Cl)cccc3n2)cc1 | 169 to 171 |
| C[C@H]1C(=O)C2(CC2)C(=O)N1c1ccc(C#N)c(Cl)c1 | 169 to 172 |
| Cc1cccc(SCn2cc(Br)cnc2=O)c1 | 164 |
| CCn1cc(Nc2nc(-c3cccc(N4Cc5cc(C(C)(C)C)ccc5C4=O)c3CO)cn(C)c2=O)cn1 | 138 to 140 |
| CCCc1cc(NCc2ccc3c(c2)OCO3)nc(SCC(N)=NO)n1 | 145 to 147 |

| SMILES | melting point [°C] |
| --- | --- |
| OCC1OC(n2cnc3c(NCCCC(c4ccccc4)c4ccccc4)ncnc32)C(O)C1O (stereo not drawn) | 102 to 108 |
| COC(=O)c1ccccc1-c1cc(-c2cccc(C(F)(F)F)c2)no1 | 46 to 48 |
| CCCCCCC(C(=O)O)n1cnc(NC(=O)c2cccc(O)c2S(=O)(=O)O)c1 (stereo not drawn) | 238 to 240 |
| CC(O)CC1NC(=O)c2sccc2-n2cccc21 (stereo not drawn) | 170 |
| CC(C(=O)O)c1ccc2oc(N)nc2c1 (stereo not drawn) | 225 to 229 |
| CN(C)c1nccc(N2CCN(C=O)CC2)n1 | 116 |
| OC(CCCCCCCCCOCc1ccccc1)c1ccc(OCc2ccccc2)c(OCc2ccccc2)c1 (stereo not drawn) | 45 to 47 |
| CC(C)(C)CC(C)(CO)C(=O)O (stereo not drawn) | 96.5 to 100 |
| CCOC(=O)C(=O)c1csc(NC(c2ccccc2)c2ccccc2)n1 | 82 to 85 |
| O=Cc1cn(CCCCl)c2ccc(Cl)cc12 | 107 to 108 |
| O=c1[nH]c2ccc(I)cc2cc1[N+](=O)[O-] | 279 to 282 |
| O=C1CCn2ncnc2N1 | 276 to 280 |
| O=C(Nc1cccnc1)N1CCN(c2nccc(-c3ccc(F)cc3F)n2)CC1 | 206 to 207 |
| CC1CCC(C(=O)N(C)C)=C2NC=C(C(N)=O)C(=O)N21 (stereo not drawn) | 220 |
| Clc1cc(CCc2ccccn2)c2oc(-c3nccc4ccccc34)nc2c1 | 142 to 143 |
| O=S(=O)(Oc1ccc2ccc(OS(=O)(=O)C(F)(F)F)cc2c1)C(F)(F)F | 60 to 62 |
| COc1cc(NC(C)CCCN2C(=O)c3ccccc3C2=O)c2ncccc2c1Oc1ccc(Cl)cc1 (stereo not drawn) | 75 to 77 |
| Clc1cc(N2CCSCC2)nc(Cl)n1 | 118 to 122 |
| CCOC(=O)N[C@@H]1CC=C[C@@H]2CNC[C@H]21 (racemic) | 120 to 122 |
| Cc1nc(-n2ccc(Oc3ccccc3)cc2=O)sc1C(=O)NCc1ccccc1 | 67 to 70 |
| CNC(=O)c1cccc(C(O)c2ccc(F)cc2)c1 (stereo not drawn) | 138 to 139 |
| COc1ccc(-c2c(N(C)C(C)C)c(=O)c2=O)cc1 | 109 to 115 |
| O=C1NC(=O)C(S(=O)(=O)c2ccc3ccccc3n2)S1 (stereo not drawn) | 168 to 169 |
